In patent US20260139004A1, “PEPTIDE HAVING ACTIVITIES OF PROMOTING HAIR GROWTH AND INHIBITING HAIR LOSS, AND USES THEREOF” (CAREGEN CO., LTD., priority 2022, published 2026):

Columns and labels:
[1] = system: human hair follicle dermal papilla cells (HHFDPCs); experiment: Proliferation of human hair follicle dermal papilla cells (MTT); format: cell-based; conditions: peptide at 500 nM, 5 μM and 50 μM, 72 hours, absorbance 540 nm, FIG. 1
Procedure: The effect of the peptide prepared in Preparation Example 1 above on the proliferation of human hair follicle dermal papilla cells (HHFDPCs) was tested.
HHFDPCs were seeded in a 96-well cell culture plate at a density of 4×10^3 cells/well and cultured for 24 hours under mesenchymal stem cell complete media conditions. Then, the medium was replaced with serum-free mesenchymal stem cell medium and cultured for additional 24 hours. The cultured cell culture was treated with the peptide prepared in Preparation Example 1 above at 500 nM, 5 μM, and 50 μM, respectively, treated with 1 μM VEGF to serve as a positive control, and not treated with anything to serve as a negative control (con), and these cultures were cultured at 37° C. for additional 72 hours. Thereafter, 10 μL of MTT solution (5 mg/mL) was added thereto, and the mixture was incubated in a CO2 incubator at 37° C. for 4 hours, the medium was removed, and 100 μL of DMSO was added thereto and shaken for 10 minutes. Finally, the absorbance was measured at a wavelength of 540 nm using a spectrophotometer (Molecular Devices (SpectraMax iD3, CA, USA)).

Akt = experiment: Western blot of phospho-AKT in HHFDPCs; format: cell-based, human; conditions: peptide at 500 nM, 5 μM and 50 μM, 24 hours, FIG. 2
Procedure: (§1) The effect of the peptide prepared in Preparation Example 1 above on the activation of proliferation-related signaling molecules in human hair follicle dermal papilla cells (HHFDPCs) was confirmed by Western blot method.
(§2) HHFDPCs were seeded in a 6-well cell culture plate at a density of 4×10^5 cells/well and cultured for 24 hours under mesenchymal stem cell complete media conditions. Then, the medium was replaced with serum-free mesenchymal stem cell medium and cultured for additional 24 hours. The cultured cell culture was treated with the peptide prepared in Preparation Example 1 above at 500 nM, 5 μM, and 50 μM, respectively, 1 μM of Minoxidil (MNX) and 1 μM of VEGF were treated to serve as a positive control, and not treated with anything to serve as a negative control (con), and the cultures treated with these materials were cultured at 37° C. for additional 24 hours. After washing each culture with PBS, the cells were lysed by treatment with lysis buffer to obtain a cell lysate. Equal amounts of protein samples were prepared by BCA quantification of cell lysates. The prepared protein samples were subjected to electrophoresis using 10% SDS-PAGE. […] The resultant was washed 3 times for 15 minutes each with 0.1% PBS-T (0.1% Tween-20 in PBS), treated with ECL solution (GE Healthcare, USA), and detected with a film.

[2] = system: extracellular-regulated kinase (ERK); experiment: Western blot of phospho-ERK in HHFDPCs; format: cell-based, human; conditions: peptide at 500 nM, 5 μM and 50 μM, 24 hours, FIG. 2
Procedure: as §1, §2

beta-catenin = experiment: Western blot of nuclear beta-catenin in HHFDPCs; format: cell-based, human; conditions: peptide at 500 nM, 5 μM and 50 μM, 24 hours, nuclear protein Western blot, FIG. 3
Procedure: The effect of the peptide prepared in Preparation Example 1 above on the activation of beta-catenin in human hair follicle dermal papilla cells (HHFDPCs) was confirmed by Western blot method.
HHFDPCs were seeded in a 6-well cell culture plate at a density of 4×10^5 cells/well and cultured for 24 hours under mesenchymal stem cell complete media conditions. Then, the medium was replaced with serum-free mesenchymal stem cell medium and cultured for additional 24 hours. The cultured cell culture was treated with the peptide prepared in Preparation Example 1 above at 500 nM, 5 μM, and 50 μM, respectively, and treated with 10 ng/mL of rhWnt-3a (recombinant human Wnt-3a protein, R&D systems (MN, USA) to serve as a positive control, and not treated with anything to serve as a negative control (con). The cultures treated with these materials were incubated at 37° C. for additional 24 hours. After washing each culture with PBS, nuclear proteins were isolated using a nuclear protein extraction kit (Thermo scientific, USA), and an equal amount of protein sample was prepared by BCA quantification. The prepared protein samples were subjected to electrophoresis using 10% SDS-PAGE. […] The resultant was washed 3 times for 15 minutes each with 0.1% PBS-T (0.1% Tween-20 in PBS), treated with ECL solution (GE Healthcare, USA), and detected with a film.

LEF-1 = experiment: RT-PCR of LEF-1 gene expression in HHFDPCs; format: cell-based, human; conditions: peptide at 500 nM, 5 μM and 50 μM, 24 hours, FIG. 4
Procedure: (§3) The effect of the peptide prepared in Preparation Example 1 above on the expression levels of lymphoid enhancer-binding factor 1 (LEF-1) and c-Myc, which are downstream genes of beta-catenin, in human hair follicle dermal papilla cells (HHFDPCs) was determined by the RT-PCR method.
(§4) HHFDPCs were seeded in a 6-well cell culture plate at a density of 4×10^5 cells/well and cultured for 24 hours under mesenchymal stem cell complete media conditions. Then, the medium was replaced with serum free mesenchymal stem cell medium and cultured for additional 24 hours. The cultured cell culture was treated with the peptide prepared in Preparation Example 1 above at 500 nM, 5 μM, and 50 μM, respectively, and treated with 10 ng/mL of rhWnt-3a (recombinant human Wnt-3a protein, R&D systems (MN, USA) to serve as a positive control, and not treated with anything to serve as a negative control (con), and each was cultured at 37° C. for additional 24 hours. After washing each culture with PBS, RNA was isolated therefrom by treatment with 300 μL of eaay blue (Intron, South Korea). The isolated RNA was quantified using Nano drop, and then subjected to cDNA synthesis using a cDNA synthesis kit (Enzynomics, South Korea). […] The PCR reaction product was electrophoresed on a 1.5% agarose gel, and the bands were detected using the Bio-Rad Gel Image System.

c-Myc = experiment: RT-PCR of c-Myc gene expression in HHFDPCs; format: cell-based, human; conditions: peptide at 500 nM, 5 μM and 50 μM, 24 hours, FIG. 4
Procedure: as §3, §4

DKK-1 = experiment: Western blot of DHT-induced DKK-1 in HHFDPCs; format: cell-based, human; conditions: peptide at 500 nM, 5 μM and 50 μM with 100 nM DHT, 24 hours, FIG. 5
Excerpt: It is known that in hair follicles, dihydrotestosterone (DHT) promotes the expression of Dickkopf-1 (DKK-1), and DKK-1 induced by DHT inhibits the proliferation of keratinocytes in hair follicles and causes their apoptosis, thereby promoting hair loss (J of Invest Dermatolo. 2008, February, 128(2), pp. 262-269.). The effect of the peptide prepared in Preparation Example 1 above on the expression level of the hair loss-inducing protein DKK-1 in human hair follicle dermal papilla cells (HHFDPCs) was confirmed by Western blot method.
HHFDPCs were seeded in a 6-well cell culture plate at a density of 4×10^5 cells/well and cultured for 24 hours under mesenchymal stem cell complete media conditions. Then, the medium was replaced with serum-free mesenchymal stem cell medium and cultured for additional 24 hours. The cultured cell culture was treated with 500 nM, 5 μM, and 50 μM of the peptide prepared in Preparation Example 1 above, respectively. treated with 5 μM of finasteride to serve as a positive control, and not treated with anything to serve as a negative control group (con). […] Equal amounts of protein samples were prepared by BCA quantification of cell lysates. […] The resultant was washed 3 times for 15 minutes each with 0.1% PBS-T (0.1% Tween-20 in PBS), treated with ECL solution (GE Healthcare, USA), and detected with a film.

Ha3-II = experiment: RT-PCR of Ha3-II gene expression in HHORSCs; format: cell-based, human; conditions: peptide at 500 nM, 5 μM and 50 μM, 24 hours, FIG. 6
Procedure: (§5) The effect of the peptide prepared in Preparation Example 1 above on the activation of human hair outer root sheath cells (HHORSCs) was confirmed by measuring the expression of cytokeratin proteins.
(§6) HHORSCs were seeded in a 96-well cell culture plate at a density of 4×10^3 cells/well and cultured for 24 hours under mesenchymal stem cell complete media conditions. Then, the medium was replaced with serum free mesenchymal stem cell medium and cultured for additional 24 hours. The cultured cell culture was treated with 500 nM, 5 μM, and 50 μM of the peptide prepared in Preparation Example 1 above, respectively, and treated with 100 nM of epidermal growth factor (EGF) as a positive control, and negative when not treated with anything to serve as a negative control (con), and these cultures were cultured at 37° C. for 24 hours. After washing each culture with PBS, RNA was isolated by treatment with 300 μL of eaay blue (Intron, South Korea). The isolated RNA was quantified using Nano drop, and then subjected to cDNA synthesis using a cDNA synthesis kit (Enzynomics, South Korea). Then, a PCR reaction was performed using the primers shown in Table 3 below and a PCR premix (Enzynomics, South Korea). The PCR reaction product was electrophoresed on a 1.5% agarose gel, and the bands were detected using the Bio-Rad Gel Image System.

Keratin 5 = experiment: RT-PCR of Keratin 5 gene expression in HHORSCs; format: cell-based, human; conditions: peptide at 500 nM, 5 μM and 50 μM, 24 hours, FIG. 6
Procedure: as §5, §6

Keratin 14 = experiment: RT-PCR of Keratin 14 gene expression in HHORSCs; format: cell-based, human; conditions: peptide at 500 nM, 5 μM and 50 μM, 24 hours, FIG. 6
Procedure: as §5, §6

Keratin 19 = experiment: RT-PCR of Keratin 19 gene expression in HHORSCs; format: cell-based, human; conditions: peptide at 500 nM, 5 μM and 50 μM, 24 hours, FIG. 6
Procedure: as §5, §6

LKRYKHLV (Leu-Lys-Arg-Tyr-Lys-His-Leu-Val) [peptide of Preparation Example 1]
proliferation of HHFDPC compared to the negative control (con) [1]: promoted
phosphorylation of Akt (Akt): increased
phosphorylation of extracellular-regulated kinase (ERK) [2]: increased
beta-catenin activation and movement to the nucleus (beta-catenin): increased
gene expression of LEF-1 (LEF-1): increased
gene expression of c-Myc (c-Myc): increased
expression of DKK-1 induced by DHT treatment (DKK-1): reduced in a concentration-dependent manner
gene expression of Ha3-II (Ha3-II): increasing
gene expression of Keratin 5 (Keratin 5): increasing
gene expression of Keratin 14 (Keratin 14): increasing
gene expression of Keratin 19 (Keratin 19): increasing
